Data: publication PMC8851515 (Proceedings of the National Academy of Sciences of the …, 2022)

Biological target: T1, hDHHC20 (Homo sapiens, UniProt Q5W0Z9)
T1 sequence (Q5W0Z9 1-365): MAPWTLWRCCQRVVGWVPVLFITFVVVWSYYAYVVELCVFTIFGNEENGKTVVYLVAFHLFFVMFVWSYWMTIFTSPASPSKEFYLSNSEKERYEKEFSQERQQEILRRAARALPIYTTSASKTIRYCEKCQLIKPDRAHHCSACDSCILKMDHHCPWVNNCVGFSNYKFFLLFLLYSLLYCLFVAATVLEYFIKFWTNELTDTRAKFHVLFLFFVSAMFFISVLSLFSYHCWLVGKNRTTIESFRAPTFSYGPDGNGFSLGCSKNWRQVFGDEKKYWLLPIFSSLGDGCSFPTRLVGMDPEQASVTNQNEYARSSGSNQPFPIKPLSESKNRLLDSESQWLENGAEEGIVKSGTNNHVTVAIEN
Assay: coupled-enzyme PAT activity inhibition assay
Assay type: biochemical

CCCCCCCCCCCCCCC(Br)C(=O)O (stereo not shown) [2-bromopalmitic acid]
IC50: 4.5 µM
